These results are taken from ChEMBL document CHEMBL5131409, “Synthesis and characterization of chiral 6-azaspiro[2.5]octanes as potent and selective antagonists of the M4 muscarinic acetylcholine receptor” (Bioorg Med Chem Lett, 2022).

Data set [1] concerns the target T1, Muscarinic acetylcholine receptor M4 (Homo sapiens, UniProt P08173).
T1 sequence (P08173 whole entry): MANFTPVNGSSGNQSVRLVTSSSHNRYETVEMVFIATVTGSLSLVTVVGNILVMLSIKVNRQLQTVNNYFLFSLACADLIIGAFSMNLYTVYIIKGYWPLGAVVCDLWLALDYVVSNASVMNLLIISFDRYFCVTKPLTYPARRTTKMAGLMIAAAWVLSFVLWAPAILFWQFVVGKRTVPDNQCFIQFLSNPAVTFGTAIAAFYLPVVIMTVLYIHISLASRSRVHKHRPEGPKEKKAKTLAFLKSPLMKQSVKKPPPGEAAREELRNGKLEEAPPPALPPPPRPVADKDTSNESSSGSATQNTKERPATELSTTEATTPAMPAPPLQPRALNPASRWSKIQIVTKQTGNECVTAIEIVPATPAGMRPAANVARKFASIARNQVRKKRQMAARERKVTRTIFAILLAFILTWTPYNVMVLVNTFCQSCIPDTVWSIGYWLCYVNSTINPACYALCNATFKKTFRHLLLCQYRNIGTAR
The data set is described as follows: Inhibition of human muscarinic acetylcholine M4 receptor expressed in CHO cells co-expressing Gqi5 in the presence of acetylcholine at EC80 concentration by calcium mobilization assay. The format is functional, cell-based.

Data set [2] concerns the target T2, Muscarinic acetylcholine receptor M4 (Homo sapiens) (UniProt P08173).
T2 sequence (whole entry): T1 sequence (P08173 whole entry)
The data set is described as follows: Antagonist activity at human muscarinic acetylcholine M4 receptor expressed in CHO cells co-expressing Gqi5 assessed as minimal acetylcholine response by calcium mobilization assay relative to control. Further details: scale not given: the % may be the effect or the level left. It is filed as functional, cell-based. Particulars: filed as antagonist. A general note: A change in cytosolic calcium serves as a functional read-out for many receptors and channels.

A further data set has as its target hERG (KCNH2) (Homo sapiens, UniProt Q12809). Put plainly: Inhibition of hERG at 10 uM by patch clamp method relative to control. The format is toxicity. In general terms: The hERG channel carries a current that helps repolarise heart muscle cells.
For a further data set, the target named is Cytochrome P450 2C9 (Homo sapiens, UniProt P11712). The data set is described as follows: Inhibition of CYP2C9 in human liver microsomes using cocktail of isoform-specific probe substrate. It is filed as ADME, Microsome.
Cytochrome P450 2C9, sequence (P11712 whole entry, canonical isoform): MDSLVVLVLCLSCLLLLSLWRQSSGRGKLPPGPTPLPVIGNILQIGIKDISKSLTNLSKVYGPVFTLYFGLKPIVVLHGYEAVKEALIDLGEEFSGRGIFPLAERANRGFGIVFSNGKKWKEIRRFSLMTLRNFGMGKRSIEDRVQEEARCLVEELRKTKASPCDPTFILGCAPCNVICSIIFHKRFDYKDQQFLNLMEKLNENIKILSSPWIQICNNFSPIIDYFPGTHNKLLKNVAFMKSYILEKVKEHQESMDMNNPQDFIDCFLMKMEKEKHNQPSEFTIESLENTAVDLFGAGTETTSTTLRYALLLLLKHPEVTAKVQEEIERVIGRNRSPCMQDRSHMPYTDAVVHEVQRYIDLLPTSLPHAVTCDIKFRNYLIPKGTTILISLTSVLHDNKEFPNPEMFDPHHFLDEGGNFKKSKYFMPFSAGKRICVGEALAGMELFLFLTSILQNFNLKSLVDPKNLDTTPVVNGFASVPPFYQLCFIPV
Data set [3] concerns the target T3, Muscarinic acetylcholine receptor M2 (Homo sapiens, UniProt P08172).
T3 sequence (P08172 whole entry): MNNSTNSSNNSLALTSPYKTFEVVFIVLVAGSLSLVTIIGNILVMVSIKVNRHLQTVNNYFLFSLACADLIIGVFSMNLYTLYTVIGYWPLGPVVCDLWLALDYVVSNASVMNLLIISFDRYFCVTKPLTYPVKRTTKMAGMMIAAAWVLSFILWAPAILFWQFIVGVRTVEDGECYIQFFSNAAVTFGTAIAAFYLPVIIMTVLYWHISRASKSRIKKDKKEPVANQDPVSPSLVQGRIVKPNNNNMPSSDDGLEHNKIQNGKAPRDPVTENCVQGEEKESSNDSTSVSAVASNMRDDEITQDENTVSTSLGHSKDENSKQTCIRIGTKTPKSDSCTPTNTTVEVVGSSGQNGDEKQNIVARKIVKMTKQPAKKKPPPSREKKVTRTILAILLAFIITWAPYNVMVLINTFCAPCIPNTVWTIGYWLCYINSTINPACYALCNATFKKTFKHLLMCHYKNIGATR
Put plainly: Inhibition of human muscarinic acetylcholine M2 receptor expressed in CHO cells co-expressing Gqi5 in the presence of acetylcholine at EC80 concentration by calcium mobilization assay. The format is functional, cell-based.

The next data set deals with Cytochrome P450 3A4 (Homo sapiens, UniProt P08684). Put plainly: Inhibition of CYP3A4 in human liver microsomes using cocktail of isoform-specific probe substrate. It is filed as ADME, Microsome. On the technique in general: Liver microsomes are vesicles of endoplasmic reticulum, rich in cytochrome P450 enzymes.
Cytochrome P450 3A4, sequence (P08684 whole entry, canonical isoform): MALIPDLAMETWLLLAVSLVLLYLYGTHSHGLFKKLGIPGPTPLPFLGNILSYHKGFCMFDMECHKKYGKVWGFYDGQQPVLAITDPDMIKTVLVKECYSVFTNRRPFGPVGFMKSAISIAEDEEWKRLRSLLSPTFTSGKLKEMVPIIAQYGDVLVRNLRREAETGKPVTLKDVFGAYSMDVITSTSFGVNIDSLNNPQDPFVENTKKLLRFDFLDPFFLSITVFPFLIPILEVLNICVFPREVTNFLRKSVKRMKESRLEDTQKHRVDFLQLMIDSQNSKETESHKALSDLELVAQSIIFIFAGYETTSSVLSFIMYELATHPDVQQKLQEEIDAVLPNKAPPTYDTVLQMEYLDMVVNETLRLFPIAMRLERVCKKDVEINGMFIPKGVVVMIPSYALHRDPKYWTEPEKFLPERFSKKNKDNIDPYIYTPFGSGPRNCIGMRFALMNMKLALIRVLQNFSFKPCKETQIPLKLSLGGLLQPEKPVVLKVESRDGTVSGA
The target in a further data set is T4, Cytochrome P450 1A2 (Homo sapiens, UniProt P05177).
T4 sequence (P05177 whole entry): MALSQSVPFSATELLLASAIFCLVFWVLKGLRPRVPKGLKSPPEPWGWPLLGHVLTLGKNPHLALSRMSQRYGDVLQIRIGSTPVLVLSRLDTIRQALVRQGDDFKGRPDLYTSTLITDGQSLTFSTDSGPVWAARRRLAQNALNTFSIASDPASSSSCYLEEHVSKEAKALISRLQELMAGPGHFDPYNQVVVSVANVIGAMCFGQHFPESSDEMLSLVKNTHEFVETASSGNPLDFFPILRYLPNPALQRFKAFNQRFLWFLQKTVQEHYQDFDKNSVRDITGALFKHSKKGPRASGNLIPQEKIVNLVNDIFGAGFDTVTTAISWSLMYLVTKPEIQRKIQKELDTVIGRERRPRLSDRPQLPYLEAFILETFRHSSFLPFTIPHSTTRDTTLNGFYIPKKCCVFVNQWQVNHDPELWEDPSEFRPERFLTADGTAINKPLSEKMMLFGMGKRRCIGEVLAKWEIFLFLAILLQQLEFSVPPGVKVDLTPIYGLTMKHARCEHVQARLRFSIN
Put plainly: Inhibition of CYP1A2 in human liver microsomes using cocktail of isoform-specific probe substrate. The format is ADME, Microsome.

A further data set concerns the target Cytochrome P450 2D6 (Homo sapiens, UniProt P10635). The data set is described as follows: Inhibition of CYP2D6 in human liver microsomes using cocktail of isoform-specific probe substrate. It is filed as ADME, Microsome.
Data set [4] is described as follows: Intrinsic clearance in human liver microsomes. The format is ADME, Microsome. The settings on record: read-out: CLH.
A short description of data set [5]: Selectivity ratio of IC50 for inhibition of human muscarinic acetylcholine M2 receptor to IC50 for inhibition of human muscarinic acetylcholine M4 receptor expressed in CHO cells co-expressing Gqi5 in the presence of acetylcholine at EC80 concentration by calcium mobilization assay. The format is cell-based.
The target of data set [6] is T5, Muscarinic acetylcholine receptor M4 (Rattus norvegicus, UniProt P08485).
T5 sequence (P08485 whole entry): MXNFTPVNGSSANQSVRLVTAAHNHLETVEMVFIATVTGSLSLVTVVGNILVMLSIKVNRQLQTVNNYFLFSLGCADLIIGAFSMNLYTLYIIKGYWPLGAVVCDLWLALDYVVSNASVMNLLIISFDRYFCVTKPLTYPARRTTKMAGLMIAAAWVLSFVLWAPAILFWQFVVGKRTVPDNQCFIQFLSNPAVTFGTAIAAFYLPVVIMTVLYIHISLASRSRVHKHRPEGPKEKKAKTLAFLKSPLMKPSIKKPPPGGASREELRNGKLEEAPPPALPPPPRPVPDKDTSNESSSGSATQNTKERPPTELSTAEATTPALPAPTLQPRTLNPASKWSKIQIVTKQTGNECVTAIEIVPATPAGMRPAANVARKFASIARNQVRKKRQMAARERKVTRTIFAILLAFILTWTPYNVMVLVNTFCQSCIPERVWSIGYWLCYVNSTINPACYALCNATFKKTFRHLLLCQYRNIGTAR
The data set is described as follows: Inhibition of rat muscarinic acetylcholine M4 receptor expressed in CHO cells co-expressing Gqi5 in the presence of acetylcholine at EC80 concentration by calcium mobilization assay. The format is functional, cell-based.

The target in data set [7] is T6, Muscarinic acetylcholine receptor M4 (Rattus norvegicus) (UniProt P08485).
T6 sequence (whole entry): T5 sequence (P08485 whole entry)
The data set is described as follows: Antagonist activity at rat muscarinic acetylcholine M4 receptor expressed in CHO cells co-expressing Gqi5 assessed as minimal acetylcholine response by calcium mobilization assay relative to control. It is filed as functional, cell-based. Further details: scale not given: the % may be the effect or the level left. Particulars: filed as antagonist.

Cytochrome P450 2D6, sequence (P10635 whole entry, canonical isoform): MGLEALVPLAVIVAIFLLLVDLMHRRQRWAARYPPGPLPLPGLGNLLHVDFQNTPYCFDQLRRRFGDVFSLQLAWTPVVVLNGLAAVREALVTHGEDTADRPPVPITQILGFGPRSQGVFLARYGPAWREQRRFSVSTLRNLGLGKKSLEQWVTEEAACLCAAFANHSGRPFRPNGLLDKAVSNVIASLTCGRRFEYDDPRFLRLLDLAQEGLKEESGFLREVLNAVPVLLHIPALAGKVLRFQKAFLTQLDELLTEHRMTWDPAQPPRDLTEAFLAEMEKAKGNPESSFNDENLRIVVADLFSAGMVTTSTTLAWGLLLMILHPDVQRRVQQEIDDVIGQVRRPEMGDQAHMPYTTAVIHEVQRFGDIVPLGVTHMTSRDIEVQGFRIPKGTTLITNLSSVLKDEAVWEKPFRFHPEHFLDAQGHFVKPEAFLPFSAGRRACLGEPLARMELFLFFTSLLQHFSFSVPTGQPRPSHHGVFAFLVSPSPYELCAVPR
hERG (KCNH2), sequence (Q12809 whole entry, canonical isoform): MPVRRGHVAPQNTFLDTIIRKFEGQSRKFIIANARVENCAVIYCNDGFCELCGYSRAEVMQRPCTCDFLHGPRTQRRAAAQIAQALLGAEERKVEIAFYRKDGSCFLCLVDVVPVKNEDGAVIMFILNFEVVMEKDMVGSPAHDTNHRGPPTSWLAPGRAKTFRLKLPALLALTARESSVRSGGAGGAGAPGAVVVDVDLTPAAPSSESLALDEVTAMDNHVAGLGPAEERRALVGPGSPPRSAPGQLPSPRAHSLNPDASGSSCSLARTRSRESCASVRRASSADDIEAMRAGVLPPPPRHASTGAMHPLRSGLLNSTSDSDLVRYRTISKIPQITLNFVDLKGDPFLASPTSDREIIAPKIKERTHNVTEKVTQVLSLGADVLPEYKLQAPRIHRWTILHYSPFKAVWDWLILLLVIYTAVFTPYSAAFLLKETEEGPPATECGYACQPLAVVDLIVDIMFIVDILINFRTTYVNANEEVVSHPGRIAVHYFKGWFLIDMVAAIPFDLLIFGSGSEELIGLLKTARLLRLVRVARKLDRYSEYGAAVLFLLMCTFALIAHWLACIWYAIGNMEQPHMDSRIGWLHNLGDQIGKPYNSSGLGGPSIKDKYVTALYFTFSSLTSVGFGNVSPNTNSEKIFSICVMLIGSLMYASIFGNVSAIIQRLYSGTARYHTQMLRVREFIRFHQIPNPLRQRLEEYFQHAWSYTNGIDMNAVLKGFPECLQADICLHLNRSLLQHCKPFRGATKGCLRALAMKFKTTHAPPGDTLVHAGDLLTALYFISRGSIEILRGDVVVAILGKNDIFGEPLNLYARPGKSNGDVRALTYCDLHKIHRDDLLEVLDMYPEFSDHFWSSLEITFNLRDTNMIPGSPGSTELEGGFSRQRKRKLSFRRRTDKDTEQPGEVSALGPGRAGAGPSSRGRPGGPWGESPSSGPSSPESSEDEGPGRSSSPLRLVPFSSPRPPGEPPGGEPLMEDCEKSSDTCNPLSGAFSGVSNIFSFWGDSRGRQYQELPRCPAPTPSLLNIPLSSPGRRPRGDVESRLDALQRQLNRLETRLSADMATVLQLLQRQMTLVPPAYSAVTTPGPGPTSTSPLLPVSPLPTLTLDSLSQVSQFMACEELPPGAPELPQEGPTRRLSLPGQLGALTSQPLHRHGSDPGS

`Fc1ccc(Cl)c(-c2ccc(NC3CC4(C3)CN(CC3CCOCC3)C4)nn2)c1`: the 50% inhibitory concentration (IC50) in data set [1] was 2900 nM. In addition, in data set [2], the Activity is 7.8%.
Taken in the same sequence, the figures for `Fc1cccc(-c2ccc(NC[C@@H]3CC34CCN(CC3CCOCC3)CC4)nn2)c1` were 54 nM and 4.2%.
On hERG (KCNH2), `[2H]C([2H])(C1CCOCC1)N1CCC2(CC1)C[C@H]2CNc1ccc(-c2cc(F)cc(F)c2F)nn1` registered an inhibition at 10 µM of 98%. Besides, the IC50 is over 30000 nM at Cytochrome P450 2C9; 3000 nM in data set [3]; 27600 nM on Cytochrome P450 3A4; over 30000 nM against Cytochrome P450 1A2; over 30000 nM on Cytochrome P450 2D6; 42 nM in data set [1]. Further, the predicted hepatic clearance in data set [4] was 11 mL/min/kg.
With `Fc1ccc(Cl)c(-c2ccc(NCC3CC4(CCN(CC5CCOCC5)CC4)C3)nn2)c1`, the Activity in [2] stood at 4.7%.
For `c1ccc(-c2ccc(NC[C@@H]3CC34CCN(CC3CCOCC3)CC4)nn2)cc1`, the Ratio IC50 in data set [5] was over 80. Further, the IC50 against Cytochrome P450 2C9 was over 30000 nM; in data set [3], over 10000 nM; at Cytochrome P450 3A4, over 30000 nM; against Cytochrome P450 1A2 it was over 30000 nM; against Cytochrome P450 2D6, 2500 nM; in [1], 120 nM. The Activity in [2] came to 3.5%. Moreover, the predicted hepatic clearance in data set [4] is 8 mL/min/kg.
`Fc1ccc(Cl)c(-c2ccc(NC[C@H]3CC34CCN(CC3CCCCC3)CC4)nn2)c1`: the IC50 in data set [6] turned out to be 530 nM; in [1] it was 28 nM. In addition, the Activity in data set [7] is 4.4%; in [2] it was 3.7%.
With `Fc1ccc(F)c(-c2ccc(NC[C@@H]3CC34CCN(CC3CCOCC3)CC4)nn2)c1`, in data set [5], the Ratio IC50 was 60. Besides, the IC50 on Cytochrome P450 2C9 was over 30000 nM; in data set [3], 2600 nM; against Cytochrome P450 3A4 it was 17000 nM; at Cytochrome P450 1A2, over 30000 nM; against Cytochrome P450 2D6, 1900 nM; in data set [1], 52 nM. In addition, the Activity in data set [2] is 3.5%. Further, in data set [4], the predicted hepatic clearance is 10 mL/min/kg.
In the case of `Fc1ccc(Cl)c(-c2ccc(NC3CC34CCN(CC3CCOCC3)CC4)nn2)c1` (racemic), in [1], the IC50 was over 10000 nM.
With `Fc1ccccc1-c1ccc(NC[C@@H]2CC23CCN(CC2CCOCC2)CC3)nn1`, the IC50 in data set [1] is 72 nM. The Activity in data set [2] turned out to be 4.3%.
Consider `Fc1ccc(Cl)c(-c2ccc(NCC3CC34CCN(CC3CCCCC3)CC4)nn2)c1` (stereo not given), for which, in [1], the IC50 was determined as 18 nM.
With `Fc1cc(F)c(F)c(-c2ccc(NC[C@@H]3CC34CCN(CC3CCOCC3)CC4)nn2)c1`, the inhibition at 10 µM on hERG (KCNH2) came out at 99%. In addition, the values for the Ratio IC50 in data set [5] and in [5] (tested as the 2H-labelled form) were 55 and 70, respectively. Besides, the IC50 against Cytochrome P450 2C9 is over 30000 nM; in [3] it was 1800 nM; against Cytochrome P450 3A4, over 30000 nM; at Cytochrome P450 1A2, over 30000 nM; at Cytochrome P450 2D6 it was 550 nM; in data set [1] it was 33 nM. The Activity is 3% in [2] and 3.3% in data set [2] (tested as the 2H-labelled form). The predicted hepatic clearance in data set [4] was 8.4 mL/min/kg.
For `Fc1ccc(Cl)c(-c2ccc(NC[C@@H]3CC34CCN(CC3CCOCC3)CC4)nn2)c1`, in [5], the Ratio IC50 is 900. Moreover, the IC50 against Cytochrome P450 2C9 was over 30000 nM; in data set [3] it was 1600 nM; against Cytochrome P450 3A4 it was over 30000 nM; against Cytochrome P450 1A2, over 30000 nM; against Cytochrome P450 2D6, 5700 nM; in [1], 1.8 nM. In [2], the Activity worked out at 4.5%. Moreover, the predicted hepatic clearance in [4] is 15 mL/min/kg.
As for `Fc1ccc(-c2ccc(NC[C@@H]3CC34CCN(CC3CCOCC3)CC4)nn2)cc1`, the IC50 in data set [1] came to 280 nM. Further, the Activity in [2] came out at 4.1%.
With `Cn1cc2cc(-c3ccc(NC[C@@H]4CC45CCN(CC4CCOCC4)CC5)nn3)ccc2n1`, the Ratio IC50 in [5] is 50. Also, the IC50 is over 30000 nM against Cytochrome P450 2C9; 6200 nM in data set [3]; over 30000 nM against Cytochrome P450 3A4; over 30000 nM against Cytochrome P450 1A2; 19900 nM at Cytochrome P450 2D6; 130 nM in data set [1]. Also, in [2], the Activity worked out at 3.6%. Moreover, the predicted hepatic clearance in [4] was 5.9 mL/min/kg.
In the case of `Fc1ccc(Cl)c(-c2ccc(NC[C@@H]3CC34CCN(CC3CCCCC3)CC4)nn2)c1`, the results for the IC50 in [6] and in data set [1] were 81 nM and 12 nM, respectively. Further, the Activity in [7] stood at 4.3%; in data set [2] it was 2.6%.

As a reminder, the IC50 is the concentration that gives 50% inhibition. As a reminder, the inhibition is how much of the control response was suppressed.
